Reference: PubChem BioAssay (NCI)
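Results reflect a 48-hour exposure of cells in 96-well plates to compound at five concentrations. TGI: concentration producing complete growth inhibition.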

Columns and labels:
Experiment in all cases: growth of human tumour cells (NCI), 48 h
786-0 renal = test system: 786-0 renal
A549 NSCLC = test system: A549 NSCLC
COLO 205 colon = test system: COLO 205 colon
DMS 114 small cell lung = test system: DMS 114 small cell lung
HCC-2998 colon = test system: HCC-2998 colon
HL-60(TB) leukemia = test system: HL-60(TB) leukemia
HOP-92 NSCLC = test system: HOP-92 NSCLC
K-562 leukemia = test system: K-562 leukemia
LOX IMVI melanoma = test system: LOX IMVI melanoma
NCI-H226 lung = test system: NCI-H226 lung
SK-MEL-28 melanoma = test system: SK-MEL-28 melanoma
SW-620 colon = test system: SW-620 colon
UACC-62 melanoma = test system: UACC-62 melanoma
OVCAR-5 ovarian = test system: OVCAR-5 ovarian
CAKI-1 renal = test system: CAKI-1 renal
BT-549 breast = test system: BT-549 breast
MCF7 breast = test system: MCF7 breast
MDA-MB-231 breast = test system: MDA-MB-231 breast
MDA-N = test system: MDA-N
T-47D breast = test system: T-47D breast

Row | SMILES | TGI (786-0 renal) [µM] | TGI (A549 NSCLC) [µM] | TGI (COLO 205 colon) [µM] | TGI (DMS 114 small cell lung) [µM] | TGI (HCC-2998 colon) [µM] | TGI (HL-60(TB) leukemia) [µM] | TGI (HOP-92 NSCLC) [µM] | TGI (K-562 leukemia) [µM] | TGI (LOX IMVI melanoma) [µM] | TGI (NCI-H226 lung) [µM] | TGI (SK-MEL-28 melanoma) [µM] | TGI (SW-620 colon) [µM] | TGI (UACC-62 melanoma) [µM] | TGI (OVCAR-5 ovarian) [µM] | TGI (CAKI-1 renal) [µM] | TGI (BT-549 breast) [µM] | TGI (MCF7 breast) [µM] | TGI (MDA-MB-231 breast) [µM] | TGI (MDA-N) [µM] | TGI (T-47D breast) [µM]
1 | C[N+]1(C)C[C@@H](O)C[C@@H]1C(=O)[O-] | > 100 | > 100 | > 100 | > 100 | > 100 | > 100 | > 100 | > 100 | > 100 | > 100 | > 100 | > 100 | > 100 | – | – | – | – | – | – | –
2 | CCOC(=O)C1=C(c2ccccc2)N(C(C)=O)Cc2ccccc21 | > 100 | 93.8 | 32 | 25.9 | > 100 | 37.5 | 20.7 | > 100 | 33.2 | 50.5 | 36.6 | > 100 | 25.5 | > 100 | – | – | – | – | – | –
3 | COC1=CC(=O)C2C(C1=O)C(c1ccc(Cl)cc1)[C@@H]2C (some centres undefined) | 57.2 | > 100 | > 100 | 47.7 | > 100 | 55.7 | 54.8 | > 100 | > 100 | 81.8 | > 100 | 74.9 | 63 | > 100 | > 100 | – | – | – | – | –
4 | Nc1nc2ncn(CC(O)COC(=O)c3ccccc3)c2c(=O)[nH]1 (centres undefined) | > 100 | > 100 | > 100 | > 100 | – | > 100 | > 100 | > 100 | > 100 | > 100 | > 100 | > 100 | > 100 | > 100 | > 100 | – | – | – | – | –
5 | COC(=O)C1(O)c2ccccc2N=C2C1CCN2C (centres undefined) | > 100 | > 100 | > 100 | > 100 | > 100 | > 100 | > 100 | > 100 | > 100 | – | > 100 | > 100 | > 100 | > 100 | > 100 | – | – | – | – | –
6 | O=C(O)COc1ccc(C(=O)/C(SS/C(C(=O)c2ccc(OCC(=O)O)c(Cl)c2Cl)=C2\C=C(c3ccccc3Cl)SS2)=C2/C=C(c3ccccc3Cl)SS2)c(Cl)c1Cl | 36.7 | > 100 | > 77.1 | 26.1 | > 100 | 7.01 | 24.3 | > 49 | 28.5 | 47.3 | > 100 | > 56.5 | 69.5 | > 100 | > 94.7 | – | – | – | – | –
7 | CCCCCC(=Nc1n[nH]nc1C(N)=O)OCC | > 100 | > 100 | > 100 | – | > 100 | > 100 | > 100 | > 100 | > 100 | > 100 | > 100 | > 100 | > 100 | > 100 | > 100 | > 100 | > 100 | > 100 | > 100 | > 100
